Converted amounts (≈) assume the structure as drawn. Read-outs that look alike come from different tables or passages of the source.
Tests used:
[1] = system: Acinetobacter baumannii DSM 30008; test: Antimicrobial serial dilution assay (MIC); assay type: cell-based; settings: n.i.: no inhibition
Description: (§1) The antimicrobial activity (minimum inhibitory concentration, MIC) of the compounds was determined against Acinetobacter baumannii DSM 30008, Bacillus subtilis DSM 10, Chromobacterium violaceum DSM 30191, Escherichia coli DSM 1116, Mycobacterium smegmatis ATCC 700084, Pseudomonas aeruginosa PA14, Staphylococcus aureus DSM 346, Candida albicans DSM1665, Mucor hiemalis DSM 2656, Pichia anomala DSM 6766, Rhodotorula glutinis DSM 10134 and Schizosaccharomyces pombe DSM 70572 in a serial dilution assay as previously described.

Bacillus subtilis DSM 10 = test: Antimicrobial serial dilution assay (MIC); assay type: cell-based; settings: Bacillus subtilis DSM 10, n.i.: no inhibition; for MIC: DSM10, read-out: Minimum inhibitory concentration (MIC)
Description: as §1

Candida albicans DSM1665 = test: Antimicrobial serial dilution assay (MIC); assay type: cell-based; settings: n.i.: no inhibition
Description: as §1

[2] = system: Chromobacterium violaceum DSM 30191; test: Antimicrobial serial dilution assay (MIC); assay type: cell-based; settings: n.i.: no inhibition
Description: as §1

[3] = system: Escherichia coli DSM 1116; test: Antimicrobial serial dilution assay (MIC); assay type: cell-based; settings: n.i.: no inhibition
Description: as §1

Mucor hiemalis DSM 2656 = test: Antimicrobial serial dilution assay (MIC); assay type: cell-based; settings: Mucor hiemalis DSM 2656, n.i.: no inhibition; for MIC: DSM2656, read-out: Minimum inhibitory concentration (MIC)
Description: as §1

[4] = system: Mycobacterium smegmatis ATCC 700084; test: Antimicrobial serial dilution assay (MIC); assay type: cell-based; settings: Mycobacterium smegmatis ATCC 700084; n.i.: no inhibition
Description: as §1

Pichia anomala DSM 6766 = test: Antimicrobial serial dilution assay (MIC); assay type: cell-based; settings: Pichia anomala DSM 6766; n.i.: no inhibition
Description: as §1

[5] = system: Pseudomonas aeruginosa PA14; test: Antimicrobial serial dilution assay (MIC); assay type: cell-based; settings: n.i.: no inhibition
Description: as §1

[6] = system: Rhodotorula glutinis DSM 10134; test: Antimicrobial serial dilution assay (MIC); assay type: cell-based; settings: Rhodotorula glutinis DSM 10134, n.i.: no inhibition
Description: as §1

[7] = system: Schizosaccharomyces pombe DSM 70572; test: Antimicrobial serial dilution assay (MIC); assay type: cell-based; settings: Schizosaccharomyces pombe DSM 70572; n.i.: no inhibition
Description: as §1

[8] = system: Staphylococcus aureus DSM 346; test: Antimicrobial serial dilution assay (MIC); assay type: cell-based; settings: Staphylococcus aureus DSM 346, n.i.: no inhibition; for MIC: DSM346, read-out: Minimum inhibitory concentration (MIC)
Description: as §1

MTT cytotoxicity assay = assay type: cell-based; settings: read-out: Cytotoxic activity (IC50)
Description: (§2) The in vitro cytotoxicity assay was performed using the MTT (3-(4,5-dimethylthiayol-2-yl)-2,5-diphenyltetrazolium bromide) test in 96-well microtiter plates as previously described.

[9] = system: H. fraxineus (isolate RH02-T6-B4-2); test: Agar disc diffusion assay; assay type: cell-based, Hymenoscyphus fraxineus; settings: 6 mm disc, 7 days, 21 °C, n.i.: no inhibition
Description: The antifungal activity of the isolated compounds against H. fraxineus was assessed by the disc diffusion method using 9 cm diameter petri dishes as previously described […] Three sterile filter paper discs per plate were gently placed on dried potato–dextrose agar. The fungicide nystatin was applied as the positive control (20 and 50 µg/paper disc) and methanol as the negative control (10 µL/paper disc). The test plates were incubated at 21 °C for 7 days, the inhibition diameters were measured, and the activity was evaluated compared to nystatin.
Figure S44: Agar disc (6 mm diam.) diffusion assay of compound CJ-17,572 (1) against H. fraxineus RH02-T6-B4-2, grown in 9-cm petri dishes on agar-based PD
medium with H. fraxineus, N - positive control nystatin, M - negative control methanol, CJ – 1.
Table S1. Antifungal activity of the compounds 1-6. n.i.: no inhibition, n.t.: not tested.
Compounds Amount ( µg/paper disc)
Peziculastatin n.t. n.i. 8 mm
Mycorrhizin A 19 mm 31 mm n.t.
Cryptosporioptide A n.t. n.i. n.i.
Cryptosporioptide B n.t. n.i. 8 mm
Cryptosporioptide C n.t. n.i. n.i.
Nystatin 21 mm 24 mm n.t.

[10] = system: panel of bacteria and fungi; test: Antimicrobial serial dilution assay, whole panel (summary statements); assay type: cell-based
Description: as §1

[11] = system: Staphylococcus aureus DSM 1104 preformed biofilm; test: Biofilm assay, dispersal of preformed biofilm; assay type: cell-based; set-up: Antibiofilm activity, preformed S. aureus: unit not given here; settings: (/) no activity
Description: Staphylococcus aureus DSM 1104 from −20 °C stock was cultured in 25 mL CASO (Casein–Peptone Soymeal–Peptone; peptone from casein 15 g/L, peptone from soy flour 5 g/L, NaCl 5 g/L, pH 7.3) medium at 37 °C at 100 rpm in 250 mL for 20 h. The precultured suspension of S. aureus was adjusted so that its OD600 matched the turbidity of a 0.001 McFarland standard. S. aureus was incubated in 96-well tissue microtiter plates (TPP tissue culture ref.no 92196, Switzerland) for 24 h at 150 rpm in […] CASO medium with 4% glucose broth. The supernatant was removed from the wells and 150 μL of the respective media (fresh) was added to the wells, together with the serially diluted compounds (250–2 μg/mL). The plates were incubated for a further 24 h at 37 °C. Staining of the biofilms was carried out as described previously. Standard deviation (SD) of two repeats with duplicates each were 10% or less. Methanol (2.5%) and microporenic acid A (250–2 μg/mL) were used as solvent and positive controls. Error bars indicate SD with duplicates in two biological repeats.

[12] = system: Candida albicans DSM 11225 biofilm; test: Biofilm assay, inhibition of biofilm formation; assay type: cell-based; settings: (/) no activity
Description: The stock of fungal pathogen Candida albicans DSM 11225 from −20 °C was cultured in 25 mL YPD (Yeast extract Peptone Dextrose; dextrose 20 g/L, peptone 20 g/L, yeast extract 10 g/L) medium in a 250 mL flask at 30 °C with shaking 100 rpm for 18 h. Turbidity of the broth was measured and diluted to match the turbidity of a 0.05 McFarland standard in RPMI 1640 medium (Gibco, New York, NY, USA, Thermo Fisher Scientific). Afterwards, 150 μL of the fungal dispersion was added into each well of a 96-well microtiter plate (Falcon no. 351172, Thermo Fisher Scientific) and further incubated for 90 min. The supernatant was removed, and the plate was washed once by using PBS buffer. Compounds were serially diluted in 150 μL in fresh medium to concentrations of 250–2 μg/mL. Staining and analysis were conducted as previously described. Methanol (2.5%) and farnesol (250–2 μg/mL) were used as solvent and positive controls. Error bars indicate SD with duplicates in two biological repeats.

[13] = system: Fraxineus excelsior leaves; test: Phytotoxicity leaf puncture assay; settings: 1 mg/mL in MeOH, 20 µL on punctured leaves, evaluated after 3 days
Description: The phytotoxicity of the compounds 1, 3 and 4 was assessed using the leaf puncture assay as described previously. The other compounds could not be evaluated because of the limited quantity.
For this assay, similar leaves of the same Fraxineus excelsior plant were chosen onto which the compounds were applied. The pure compounds were dissolved at 1 mg/mL in MeOH. Then, 20 µL of test samples were applied to the adaxial sides of leaves that had previously been needle punctured. A total of 20 µL of MeOH in distilled water (4%) was applied on the leaves as the negative control and 1 mg/mL macrocidin A [23] as the positive control. Each treatment was repeated three times and then the leaves were placed on moistened paper filters in petri dishes (diameter 9 cm) to prevent the droplets from drying. The experiment was run in duplicate. Leaves were evaluated for the symptoms after 3 days.

[14] = system: panel of mammalian cell lines; test: MTT cytotoxicity assay, panel (summary statements); assay type: cell-based; settings: 4–6 only KB3.1 and L929
Description: as §2

[15] = human, A431 squamous cell carcinoma cells
[16] = human, A549 lung carcinoma cells
[17] = human, KB3.1 endocervical adenocarcinoma cells, n.c.: no cytotoxicity
[18] = human, MCF-7 breast adenocarcinoma cells
[19] = mouse, L929 fibroblast cells, n.c.: no cytotoxicity

Row | Structure (SMILES) | Minimum inhibitory concentration (MIC) [1] | MIC (Bacillus subtilis DSM 10) | Minimum inhibitory concentration (MIC) (Candida albicans DSM1665) | Minimum inhibitory concentration (MIC) [2] | Minimum inhibitory concentration (MIC) [3] | MIC (Mucor hiemalis DSM 2656) | Minimum inhibitory concentration (MIC) [4] | Minimum inhibitory concentration (MIC) (Pichia anomala DSM 6766) | Minimum inhibitory concentration (MIC) [5] | Minimum inhibitory concentration (MIC) [7] | MIC [8] | IC50 (MTT cytotoxicity assay; [15]) | IC50 (MTT cytotoxicity assay; [16]) | IC50 (MTT cytotoxicity assay; [17]) | IC50 (MTT cytotoxicity assay; [18]) | IC50 (MTT cytotoxicity assay; [19]) | Antifungal activity, inhibition diameter ([9]; 50 µg/paper disc) | Antifungal activity, inhibition diameter ([9]; 100 µg/paper disc) | antimicrobial activity against the tested microorganisms (in words) [10] | Minimum inhibitory concentration (MIC) [6] | other results
1 | CCCCCCC(C)/C=C/C=C/C=C/C(=O)N[C@H](C(=O)O)[C@H](O)c1ccccc1O (relative stereo) [Compound 2, peziculastatin] | n.i. | 33.3 µg/mL (≈ 80.1 µM) | n.i. | n.i. | n.i. | 33.3 µg/mL (≈ 80.1 µM) | n.i. | n.i. | n.i. | n.i. | 16.6 µg/mL (≈ 39.9 µM) | 53 µM | 41 µM | 17 µM | 11 µM | 53 µM | n.i. | 8 mm | moderate to weak antifungal activity |  | MIC ([6]; DSM10134, read-out: Minimum inhibitory concentration (MIC)): 33.3 µg/mL (≈ 80.1 µM)
2 | CC12Oc3ccc(-c4ccc5c(c4O)C(=O)C4=C(O)C6OC6(C)C(OC(=O)CC(=O)O)C4(C)O5)c(O)c3C(=O)C1=C(O)C1OC1(C)C2OC(=O)CC(=O)O (stereo not drawn) [Compound 4, Cryptosporioptide A] | n.i. |  | n.i. | n.i. | n.i. |  | n.i. | n.i. | n.i. | n.i. |  |  |  |  |  |  | n.i. | n.i. |  | n.i. | Minimum inhibitory concentration (MIC) (Bacillus subtilis DSM 10): n.i.; Minimum inhibitory concentration (MIC) (Mucor hiemalis DSM 2656): n.i.; Minimum inhibitory concentration (MIC) [8]: n.i.; Antibiofilm activity, preformed S. aureus ([11]; 62.5 µg/mL): 70; Antibiofilm activity, preformed S. aureus ([11]; 125 µg/mL): 73; Antibiofilm activity, preformed S. aureus ([11]; 250 µg/mL): 80; Antibiofilm activity, C. albicans ([12]; 31.3 µg/mL): 39; Antibiofilm activity, C. albicans ([12]; 62.5 µg/mL): 71; Antibiofilm activity, C. albicans ([12]; 125 µg/mL): 71; Antibiofilm activity, C. albicans ([12]; 250 µg/mL): 81; phytotoxic activity, leaf puncture assay [13]: brownish lesions
3 | COC1=C(C(=O)[C@@]2(C)[C@@H](C)C=C[C@H]3C[C@@H](C)CC[C@@H]32)C(=O)N(C)[C@H]1[C@@H](C)O [Compound 7, 4′-methyl-CJ-17,572] | n.i. | 8.3 µg/mL (≈ 22.1 µM) | n.i. | n.i. | n.i. | 66.6 µg/mL (≈ 177 µM) | n.i. | n.i. | n.i. | n.i. | 33.3 µg/mL (≈ 88.7 µM) |  |  |  |  |  |  |  | weak antimicrobial activity | n.i. | IC50 (MTT cytotoxicity assay; human, A431): 24 µM; IC50 (MTT cytotoxicity assay; human, A549): 10 µM; IC50 (MTT cytotoxicity assay; human, KB3.1, n.c.: no cytotoxicity): 6.4 µM; IC50 (MTT cytotoxicity assay; human, MCF-7): 9.6 µM; IC50 (MTT cytotoxicity assay; human, PC-3): 9.1 µM; IC50 (MTT cytotoxicity assay; human, SKOV-3): 14 µM; IC50 (MTT cytotoxicity assay; mouse, L929, n.c.: no cytotoxicity): 32 µM; cytotoxicity against the tested cell lines (in words) [14]: active against all the tested cell lines
4 | COC1=C(C(=O)[C@@]2(C)[C@@H](C)C=C[C@H]3C[C@@H](C)CC[C@@H]32)C(=O)[C@H]([C@@H](C)O)N1C [Compound 8, 2′-methyl-CJ-17,572] | n.i. |  | n.i. | n.i. | n.i. |  | n.i. | n.i. | n.i. | n.i. |  | 20 µM | 35 µM | 15 µM | 1.8 µM | 43 µM |  |  | did not show any activity | n.i. | Minimum inhibitory concentration (MIC) (Bacillus subtilis DSM 10): n.i.; Minimum inhibitory concentration (MIC) (Mucor hiemalis DSM 2656): n.i.; Minimum inhibitory concentration (MIC) [8]: n.i.; IC50 (MTT cytotoxicity assay; human, PC-3 prostate cancer cells): 18 µM; IC50 (MTT cytotoxicity assay; human, SKOV-3 ovarian carcinoma cells): 21 µM; cytotoxicity against the tested cell lines (in words) [14]: active against all the tested cell lines

From publication PMC10669340, “Bioactive Compounds from an Endophytic Pezicula sp. Showing Antagonistic Effects against the Ash Dieback Pathogen” (Biomolecules, 2023)
